Results: ChEMBL document CHEMBL1142925, “Optimization and determination of the absolute configuration of a series of potent inhibitors of human papillomavirus type-11 E1-E2 protein-protein interaction: a combined medicinal chemistry, NMR and computational chemistry approach” (Bioorg Med Chem, 2007)
Activity calls are given as the source filed them. The calls are words filed in the database; no cut-off is given here.

Key:
[1] = target: Large T antigen (Simian virus 40) (UniProt P03070); test: Inhibition of binding of SV40 large T antigen to DNA by scintillation proximity assay; details: Betapolyomavirus macacae
Chain of Large T antigen (Simian virus 40) (P03070 whole entry): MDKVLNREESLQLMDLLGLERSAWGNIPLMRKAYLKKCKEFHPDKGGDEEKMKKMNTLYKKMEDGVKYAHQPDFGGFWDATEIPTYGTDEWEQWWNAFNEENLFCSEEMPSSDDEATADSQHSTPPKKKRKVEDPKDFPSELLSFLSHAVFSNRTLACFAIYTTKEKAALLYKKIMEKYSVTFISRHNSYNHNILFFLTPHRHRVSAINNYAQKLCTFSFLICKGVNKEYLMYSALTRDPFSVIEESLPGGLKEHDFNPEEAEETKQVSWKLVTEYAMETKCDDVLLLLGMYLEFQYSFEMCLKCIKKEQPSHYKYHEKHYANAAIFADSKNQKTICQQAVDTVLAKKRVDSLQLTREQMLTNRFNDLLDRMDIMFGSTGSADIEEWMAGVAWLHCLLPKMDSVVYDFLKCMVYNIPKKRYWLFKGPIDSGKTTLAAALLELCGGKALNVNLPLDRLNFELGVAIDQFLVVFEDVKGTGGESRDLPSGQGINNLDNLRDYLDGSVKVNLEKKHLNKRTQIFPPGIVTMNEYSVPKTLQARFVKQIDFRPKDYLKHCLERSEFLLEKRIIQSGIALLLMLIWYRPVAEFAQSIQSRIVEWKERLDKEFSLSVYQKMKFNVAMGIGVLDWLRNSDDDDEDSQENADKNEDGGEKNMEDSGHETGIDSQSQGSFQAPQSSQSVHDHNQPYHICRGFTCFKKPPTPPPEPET

[2] = Inhibition of HPV11 E1-E2 protein-protein interaction by E1-E2-ori-complex formation assay

| Activity [1] | IC50 [2] | SMILES |
| --- | --- | --- |
| inactive | 88 nM | O=C(Nc1ccc(N2CCOCC2)cc1)[C@H]1[C@@H](C(=O)O)C2(O[C@H]1c1ccc(Cl)c(Cl)c1)C(=O)c1ccccc1C2=O |
| inactive |  | O=C(Nc1ccc(N2CCOCC2)cc1)[C@H]1[C@@H](C(=O)O)C2(O[C@H]1c1ccc(Br)c(Br)c1)C(=O)c1ccccc1C2=O (stereo in doubt; 21) [listing 1 of 2 here] |
| inactive | 440 nM | CC(=O)Nc1ccc(NC(=O)[C@H]2[C@@H](C(=O)O)C3(O[C@H]2c2ccc(Cl)c(Cl)c2)C(=O)c2ccccc2C3=O)cc1 |
| inactive | 7800 nM | O=C(Nc1ccc2c(c1)OCO2)[C@H]1[C@@H](C(=O)O)C2(O[C@H]1c1ccc(Cl)cc1)C(=O)c1ccccc1C2=O |
| inactive | 15000 nM | O=C(Nc1ccc(N2CCOCC2)cc1)[C@H]1[C@@H](c2ccc(Br)c(Br)c2)OC2(C(=O)c3ccccc3C2=O)[C@H]1C(=O)O |
| inactive | 6 nM | Cc1cc2c(s1)C(=O)[C@]1(O[C@@H](c3ccc(Br)c(Br)c3)[C@@H](C(=O)Nc3ccc(N4CCOCC4)cc3)[C@H]1C(=O)O)C2=O |
| inactive |  | O=C(Nc1ccc(N2CCOCC2)cc1)[C@H]1[C@@H](C(=O)O)C2(O[C@H]1c1ccc(Br)c(Br)c1)C(=O)c1ccccc1C2=O (stereo in doubt; 19) [listing 1 of 2 here] |
| inactive | 740 nM | CC(=O)Nc1cccc(NC(=O)[C@H]2[C@@H](C(=O)O)C3(O[C@H]2c2ccc(Cl)c(Cl)c2)C(=O)c2ccccc2C3=O)c1 |
| inactive | 180 nM | Cc1ccc2c(c1)C(=O)[C@@]1(O[C@@H](c3ccc(Cl)c(Cl)c3)[C@@H](C(=O)Nc3ccc(-c4csnn4)cc3)[C@H]1C(=O)O)C2=O |
| inactive | 6800 nM | C[C@@H](NC(=O)[C@H]1[C@H]2C(=O)O[C@]3(O)c4ccccc4C(=O)[C@]23O[C@H]1c1ccc(Cl)c(Cl)c1)c1ccccc1 |
| inactive | 2100 nM | CC(C)(C)NC(=O)[C@H]1[C@@H](C(=O)O)C2(O[C@H]1c1ccc(Cl)c(Cl)c1)C(=O)c1ccccc1C2=O |
| inactive | 380 nM | CC(=O)c1ccc(NC(=O)[C@H]2[C@@H](C(=O)O)C3(O[C@H]2c2ccc(Cl)c(Cl)c2)C(=O)c2ccccc2C3=O)cc1 |
| inactive | 460 nM | Cc1cc2c(s1)C(=O)[C@@]1(O[C@@H](c3ccc(Br)c(Br)c3)[C@@H](C(=O)Nc3ccc(N4CCOCC4)cc3)[C@H]1C(=O)O)C2=O |
| inactive | 3500 nM | O=C(NCc1ccccc1)[C@H]1[C@@H](C(=O)O)C2(O[C@H]1c1ccc(Cl)c(Cl)c1)C(=O)c1ccccc1C2=O |
| inactive | 350 nM | O=C(Nc1ccc2c(c1)OCO2)[C@H]1[C@@H](C(=O)O)C2(O[C@H]1c1ccc(Cl)c(Cl)c1)C(=O)c1ccccc1C2=O |
| inactive | 65000 nM | CC(=O)Nc1ccccc1NC(=O)[C@H]1[C@@H](C(=O)O)C2(O[C@H]1c1ccc(Cl)c(Cl)c1)C(=O)c1ccccc1C2=O |
|  | 51 nM | O=C(Nc1ccc(N2CCOCC2)cc1)[C@H]1[C@@H](C(=O)O)C2(O[C@H]1c1ccc(Br)c(Br)c1)C(=O)c1ccccc1C2=O (stereo in doubt; 19) [listing 2 of 2 here] |
| inactive | > 75000 nM | C[C@@H](NC(=O)[C@H]1[C@@H](c2ccc(Cl)c(Cl)c2)O[C@@]23C(=O)c4ccccc4[C@]2(O)OC(=O)[C@@H]13)c1ccccc1 |
| inactive | 6600 nM | O=C(Nc1ccc2c(c1)OCO2)[C@H]1[C@H]2C(=O)O[C@]3(O)c4ccccc4C(=O)[C@]23O[C@H]1c1ccc(Cl)cc1 |
| inactive | 150 nM | O=C(Nc1ccc(-c2csnn2)cc1)[C@H]1[C@@H](C(=O)O)C2(O[C@H]1c1ccc(Cl)c(Cl)c1)C(=O)c1ccccc1C2=O |
| inactive | 680 nM | O=C(Nc1ccccc1)[C@H]1[C@@H](C(=O)O)C2(O[C@H]1c1ccc(Cl)c(Cl)c1)C(=O)c1ccccc1C2=O |
|  | 28 nM | O=C(Nc1ccc(N2CCOCC2)cc1)[C@H]1[C@@H](C(=O)O)C2(O[C@H]1c1ccc(Br)c(Br)c1)C(=O)c1ccccc1C2=O (stereo in doubt; 21) [listing 2 of 2 here] |
